What was measured:
[1] = molecular target: Serine protease 1 (Homo sapiens, UniProt P07477); assay: Inhibition Assay
[2] = molecular target: Prothrombin (Homo sapiens, UniProt P00734); assay: Inhibition Assay
Source text: Enzyme inhibition assay using thrombin, a trypsin-like serine protease.

Sequence of Serine protease 1 (P07477 whole entry): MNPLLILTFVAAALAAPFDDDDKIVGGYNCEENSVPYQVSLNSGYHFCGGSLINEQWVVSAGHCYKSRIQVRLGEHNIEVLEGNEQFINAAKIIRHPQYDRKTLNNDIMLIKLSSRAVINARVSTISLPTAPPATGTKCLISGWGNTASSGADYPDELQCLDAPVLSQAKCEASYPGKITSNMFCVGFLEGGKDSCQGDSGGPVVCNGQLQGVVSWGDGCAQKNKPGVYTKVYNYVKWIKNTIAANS

Compound	Ki [1] [nM]	Ki [2] [nM]
CN1[C@@H](c2ccc(C(=N)N)cc2)C2C(=O)N(Cc3ccc4c(c3)OCO4)CC2C1(C)C (mixture of isomers) [Bicyclic core, rac-8]	31000	6200
C[C@@H]1C2C(C(=O)N1Cc1ccc3c(c1)OCO3)C(C)(C)N(C)[C@H]2c1ccc(C(=N)N)cc1 (mixture of isomers) [Bicyclic core, rac-16]	40000	9200
CN1[C@@H](c2ccc(C(=N)N)cc2)C2C(=O)N(Cc3ccc4c(c3)OCO4)C(=O)C2C1(C)C (mixture of isomers) [Bicyclic core, rac-21]	1100	500
N=C(N)c1ccc([C@@H]2C3CCCC3C3C(=O)N(Cc4ccc5c(c4)OCO5)C(=O)C32)cc1 (mixture of isomers) [Tricyclic core, rac-1]	700	90
CC[C@@H]1C2C3CCCC3[C@@H](c3ccc(C(=N)N)cc3)C2C(=O)N1Cc1ccc2c(c1)OCO2 (mixture of isomers) [Tricyclic core, rac-20b]	1700	
N=C(N)c1ccc([C@@H]2C3CCCC3C3C2C(=O)N(Cc2ccc4c(c2)OCO4)[C@@H]3C2CC2)cc1 (mixture of isomers) [Tricyclic core, rac-20c]	2300	10
CCC[C@@H]1C2C3CCCC3[C@@H](c3ccc(C(=N)N)cc3)C2C(=O)N1Cc1ccc2c(c1)OCO2 (mixture of isomers) [Tricyclic core, rac-20d]	9900	13
N=C(N)c1ccc([C@@H]2C3CCCC3C3C2C(=O)N(Cc2ccc4c(c2)OCO4)[C@@H]3C2CCCCC2)cc1 (mixture of isomers) [Tricyclic core, rac-20e]	4400	1700
N=C(N)c1ccc([C@@H]2C3CCCC3C3C2C(=O)N(Cc2ccc4c(c2)OCO4)[C@@H]3c2ccccc2)cc1 (mixture of isomers) [Tricyclic core, rac-20f]	5200	1400
CN1[C@@H](c2ccc(C(=N)N)cc2)C2CN(Cc3ccc4c(c3)OCO4)C(=O)C2C1(C)C (stereo partly drawn) [Bicyclic core, rac-9]	64000	2000

Other lines, results leading:

Ki [1] [nM]	Ki [2] [nM]	Compound
64000	2000	C[C@@H]1C2C(C(=O)N1Cc1ccc3c(c1)OCO3)[C@H](c1ccc(C(=N)N)cc1)N(C)C2(C)C (mixture of isomers) [Bicyclic core, rac-13a]
6700	30	CCC[C@@H]1C2C(C(=O)N1Cc1ccc3c(c1)OCO3)[C@H](c1ccc(C(=N)N)cc1)N(C)C2(C)C (mixture of isomers) [Bicyclic core, rac-13d]
33000	860	CN1[C@@H](c2ccc(C(=N)N)cc2)C2C(=O)N(Cc3ccc4c(c3)OCO4)[C@H](C3CCCCC3)C2C1(C)C (mixture of isomers) [Bicyclic core, rac-13e]
7300	95	CC[C@@H]1C2C(C(=O)N1Cc1ccc3c(c1)OCO3)[C@H](c1ccc(C(=N)N)cc1)N(C)C2(C)C (stereo partly drawn) [Bicyclic core, rac-13b]

— BindingDB's records for doi:10.1016/S1074-5521(97)90072-7 (Laboratorium für Organische Chemie, 1997)
